Where “and” joins values, the source holds several entries; their conditions need not be identical. Equal values may be shown once. Inconclusive results and toxic doses are left out. The calls were made as follows: active = survival T/C of 150% or more; inactive = T/C below 125% in these data.
Tested on: P388 leukemia ip, CD2F1 mice, survival T/C
Test: NCI In Vivo Anticancer Drug Screen. Data for tumor model P388 Leukemia (intraperitoneal) in CD2F1 (CDF1) mice
Details: endpoint: median survival time, higher = longer survival
Method in brief: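 Mice carrying the transplanted tumor received test compound or vehicle. Survival was recorded in each group, and the value is the treated-group measurement divided by that of the vehicle-treated control group.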

[1] = dose: 50.0 mg/kg/injection, schedule: Q01DX009 (ip), vehicle: saline with Tween-80
[2] = dose: 100.0 mg/kg/injection, schedule: Q01DX009 (ip), vehicle: saline with Tween-80
[3] = dose: 200.0 mg/kg/injection, schedule: Q01DX009 (ip), vehicle: saline with Tween-80
[4] = dose: 12.5 mg/kg/injection, schedule: Q01DX009 (ip), vehicle: saline with Tween-80
[5] = dose: 25.0 mg/kg/injection, schedule: Q01DX009 (ip), vehicle: saline with Tween-80

Measured: T/C

c1ccc2c(c1)nnc1ccccc12
inactive: dose: 50.0 mg/kg/injection, schedule: Q01DX005 (ip), vehicle: Klucel + Tween-80 102 % of control | dose: 100.0 mg/kg/injection, schedule: Q01DX005 (ip), vehicle: Klucel + Tween-80 96 % of control | dose: 200.0 mg/kg/injection, schedule: Q01DX005 (ip), vehicle: Klucel + Tween-80 102 % of control

N#CC12OC1(Cl)CCCC2(Cl)Cl (stereo not given)
inactive: [1] 95 % of control | [2] 95 % of control | [3] 86 % of control

COc1ccc2c(=O)c(Cc3ccccc3)coc2c1
inactive: dose: 60.0 mg/kg/injection, schedule: Q01DX005 (ip), vehicle: saline with Tween-80 100 % of control | dose: 120.0 mg/kg/injection, schedule: Q01DX005 (ip), vehicle: saline with Tween-80 97 % of control | dose: 240.0 mg/kg/injection, schedule: Q01DX005 (ip), vehicle: saline with Tween-80 100 % of control

CC1C(c2ccccc2)OCCN1C(N)=S (stereo not given)
inactive: dose: 50.0 mg/kg/injection, schedule: Q01DX009 (ip), vehicle: Klucel (hydroxypropylcellulose) (HPC) 108 % of control | dose: 100.0 mg/kg/injection, schedule: Q01DX009 (ip), vehicle: Klucel (hydroxypropylcellulose) (HPC) 101 % of control | dose: 200.0 mg/kg/injection, schedule: Q01DX009 (ip), vehicle: Klucel (hydroxypropylcellulose) (HPC) 101 % of control

C=C1C(=O)OC2/C=C(/C)C(OC(C)=O)CC(O)/C(C)=C\C(OC(=O)/C(C)=C\C)C12 (stereo not given)
inactive: [4] 100 % of control | [5] 117 % of control | [1] 118 % of control | [2] 114 % of control

CCOC(=O)c1cn(C2OC(CO)C(O)C2O)c(=O)nc1N (stereo not given)
inactive: dose: 50.0 mg/kg/injection, schedule: Q04DX003 (ip), vehicle: saline 99 % of control | dose: 100.0 mg/kg/injection, schedule: Q04DX003 (ip), vehicle: saline 100 % of control | dose: 200.0 mg/kg/injection, schedule: Q04DX003 (ip), vehicle: saline 100 % of control | dose: 400.0 mg/kg/injection, schedule: Q04DX003 (ip), vehicle: saline 102 % of control

C/C=C1/CN2CCC1CC2C(O)c1ccnc2ccc(OCCO)cc12 (stereo not given)
inactive: dose: 50.0 mg/kg/injection, schedule: Q01DX005 (ip), vehicle: saline 97 % of control | dose: 100.0 mg/kg/injection, schedule: Q01DX005 (ip), vehicle: saline 93 % of control | dose: 200.0 mg/kg/injection, schedule: Q01DX005 (ip), vehicle: saline 94 % of control

COc1ccc(-c2cc(=O)c3c(O)c(OC)c(OC)cc3o2)cc1O
inactive: dose: 18.8 mg/kg/injection, schedule: Q04DX002 (ip), vehicle: saline with Tween-80 96 % of control | dose: 37.5 mg/kg/injection, schedule: Q04DX002 (ip), vehicle: saline with Tween-80 102 % of control | dose: 75.0 mg/kg/injection, schedule: Q04DX002 (ip), vehicle: saline with Tween-80 93 % of control | dose: 150.0 mg/kg/injection, schedule: Q04DX002 (ip), vehicle: saline with Tween-80 96 % of control

Cc1cccnc1NS(=O)(=O)c1ccccc1
inactive: [2] 100 % of control | [3] 100 % of control | dose: 400.0 mg/kg/injection, schedule: Q01DX009 (ip), vehicle: saline with Tween-80 100 % of control

CCCCNCCC(SSSC(CCNCCCC)c1ccc(Cl)cc1)c1ccc(Cl)cc1 (stereo not given)
inactive: dose: 6.25 mg/kg/injection, schedule: Q01DX009 (ip), vehicle: saline with Tween-80 100 % of control | [4] 100 % of control | [5] 90 % of control

COc1ccc2c(c1OC)C(O)N1CCc3cc4c(cc3C1=C2C(=O)c1ccccc1)OCO4 (stereo not given)
inactive: dose: 12.5 mg/kg/injection, schedule: Q01DX005 (ip), vehicle: Klucel (hydroxypropylcellulose) (HPC) 100 % of control and 106 % of control | dose: 25.0 mg/kg/injection, schedule: Q01DX005 (ip), vehicle: Klucel (hydroxypropylcellulose) (HPC) 100 % of control and 94 % of control | dose: 50.0 mg/kg/injection, schedule: Q01DX005 (ip), vehicle: Klucel (hydroxypropylcellulose) (HPC) 103 % of control (2×) and 123 % of control | dose: 100.0 mg/kg/injection, schedule: Q01DX005 (ip), vehicle: Klucel (hydroxypropylcellulose) (HPC) 111 % of control

COC(=O)C1CSC2(CCCN(Cc3ccccc3)C2)N1 (stereo not given)
inactive: dose: 50.0 mg/kg/injection, schedule: Q01DX009 (ip), vehicle: saline 105 % of control | dose: 100.0 mg/kg/injection, schedule: Q01DX009 (ip), vehicle: saline 122 % of control | dose: 200.0 mg/kg/injection, schedule: Q01DX009 (ip), vehicle: saline 109 % of control

From PubChem BioAssay AID330 (DTP/NCI, 2004)
